# Entries after “also recorded” stand apart in the source; their conditions may differ. Ends that are not written are not given here.
# What was measured:
# [1] = tested on: F11 cells transformed with M146L-PS1; test: Neuronal cell death induced by M146L-PS1 gene, Trypan blue exclusion assay; format: cell-based, rat/mouse hybrid; details: M146L-PS1, 72 hours after transformation
# Protocol: (§1) F11 cell, the hybrid cell of rat embryonic day 13 (E13) primary cultured neuronal cell with mouse neuroblastoma NTG18 cell, was cultured in Ham's F-12 medium (Life Technologies, Gaithersburg, Md.) containing 18% FBS (Hyclone, Logan, Utah) and antibiotics as previously reported (Platika D, et al., 1985, Proc Natl Acad Sci USA 82: 3499-3503; Yamatsuji T, et al., 1996, Science 272: 1349-1352; Huang P, et al., 2000, Mol Hum Reprod 6: 1069-1078; and Niikura T, et al., 2001, J Neuroscience, 21: 1902-1910).
# (§2) (i) Test of Neuronal Cell Death Induced by M146L-PS1 or G93R-SOD1 Gene
# The F11 cells (7×10^4 cells/well, 6-well plate, 12- to 16-hour culture in Ham's F-12 (18% FBS) medium) were transformed with M146L-PS1 or G93R-SOD1 gene by lipofection (0.5 μg of cDNA; 1 μl of LipofectAMINE; 2 μl of PLUS Reagent) under serum-free conditions for 3 hours and cultured for 2 hours in Ham's F-12 (18% FBS) medium. The medium was replaced by Ham's F-12 (10% FBS) in the presence or absence of varying concentrations (100 aM, 1 fM, 10 fM, 100 fM, 1 pM, 10 pM, 100 pM, 1 nM, 10 nM, or 100 nM) of colivelin or AGA-CBR-HNG17 peptides. After 72 hours of the transformation, cell mortality was measured by Trypan blue exclusion assay as previously reported (Hashimoto Y, et al., 2001, J Neurosci 21: 9235-9245; and Hashimoto Y, et al, 2001, Proc Natl Acad Sci USA 98: 6336-6341). […]
# [2] = tested on: F11 cells transformed with G93R-SOD1; test: Neuronal cell death induced by G93R-SOD1 gene, Trypan blue exclusion assay; format: cell-based, rat/mouse hybrid
# Protocol: as §1, §2
# The F11 cells (7×10^4 cells/well, 6-well plate, 12- to 16-hour culture in Ham's F-12 (18% FBS) medium) were transformed with M146L-PS1 or G93R-SOD1 gene by lipofection (0.5 μg of cDNA; 1 μl of LipofectAMINE; 2 μl of PLUS Reagent) under serum-free conditions for 3 hours and cultured for 2 hours in Ham's F-12 (18% FBS) medium. […] After 72 hours of the transformation, cell mortality was measured by Trypan blue exclusion assay as previously reported (Hashimoto Y, et al., 2001, J Neurosci 21: 9235-9245; and Hashimoto Y, et al, 2001, Proc Natl Acad Sci USA 98: 6336-6341).
# ADNF has already been reported to protect neurons from toxicity caused by SOD1 mutations. […] After 72 hours of the transformation, cell mortality was measured by Trypan blue exclusion assay (FIG. 3).
# [3] = tested on: G93A-SOD1 Tg mice; test: Motor performance (rotarod), onset and survival test with ALS model animal, icv administration (Example 3); format: in vivo, mouse
# Text: Transgenic (Tg) mice (hereinafter, referred to as “G93A-SOD1 Tg mice”) expressing human FALS-associated SOD1 mutant gene with a mutation (G93A) from Gly to Ala at 93 position are the best-established mouse model of ALS (Gurney M E, et al., 1994, Science 264: 1772-1775; and Gurney M E, et al., 1997, J Neurol Sci 152 Suppl 1: S67-73). The G93A-SOD1 Tg mice manifest symptoms quite similar to human ALS after normal birth and rapidly result in death in all cases. The G93A-SOD1 Tg mice, which have the onset of the regression of motor neurons similar clinically and pathologically to that in human ALS, have been known so far to be the most excellent model of ALS throughout the world and employed for identifying effective candidate drugs for ALS patients.
# The model mice were used to confirm the in vivo effect of colivelin against neurotoxicity caused by G93A-SOD1.
# The G93A-SOD1 Tg mice were purchased from Jackson Laboratories (Bar Harbor, Me.). The G93A-SOD1 Tg mice were kept as hemizygote mice by the mating thereof with C57BL/6J mice (CLEA Japan, Inc). The mice were raised in an SPF room (specific pathogen-free animal facility; 23±1° C., 55±5% humidity) in the 12-hour light/12-hour dark cycle (7:00 AM-7:00 PM). The mice were freely fed with gamma ray-irradiated Picolab Rodent Diet 20 (PMI Feeds Inc. St. Louis, Mo.) and sodium hyposulfite (5 ppm)-containing aseptic deionized distilled water.
# The G93A-SOD1 Tg mice at 10 weeks of age were put under anesthesia by the intraperitoneal injection of 10% Nembutal (sodium pentobarbital; 60 mg/kg). A hole was made on the cranial bone with a drill on a sterotaxic surgery apparatus to aseptically transplant the C315GS-4 cannula system for mouse (Plastics One Inc., Roanoke, Va.) to the mouse left lateral ventricle. The cannula was fixed with a surgical adhesive and dental cement.
# The mice at 80 days of age were divided at random to a saline (control)-administered group (n=7), 100 fmol colivelin-administered group (n=6), 10 pmol colivelin-administered group (n=7), 1 nmol colivelin-administered group (n=7), and 30 nmol ADNF-administered group (n=5). Until the end of the experiment, the control group received the intracerebroventricular (icv) injection of 3 μl of saline each day, while the colivelin-administered groups and the ADNF-administered group received the icy injection of 3 μl of colivelin (100 f mol, 10 pmol, or 1 nmol) and 3 μI of 30 nmol ADNF, respectively. In this context, colivelin and ADNF were separately dissolved in a saline for the injection. The injection was performed with the cannula in C315IS-4 connected to Hamilton syringe through a cannula tube (C232, PESO/Thin wall, Plastic One).
# The motor function (motor performance) was evaluated weekly with a rotarod (CLEA Japan Inc). After the cannulation, the mice were acclimated to the rotarod for 2 days. The mice were placed onto a rotating rod at a speed of 5 rpm, and the time for which each mouse could remain on the rod was automatically detected. The test was conducted according to the protocol wherein the test was completed as a score of 7 minutes if the mouse remained on the rod for 7 minutes (Li M, et al., 2000, Science 288: 335-339; and Kaspar B K, et al., 2003, Science 301: 839-842). Disease onset was defined as the first day when the mouse could not remain on the rotarod for 7 minutes.
# Death was defined when the mouse was unable to right itself within 30 seconds after being placed on its back (Li M, et al., op. cit).
# [4] = 100 fmol colivelin icv each day
sequence,measurement,setting,value
"PAGASRLLLLTGEIDLP [AGA-C8R-HNG17, Pro-Ala-Gly-Ala-Ser-Arg-Leu-Leu-Leu-Leu-Thr-Gly-Glu-Ile-Asp-Leu-Pro, reference compound]",concentration of complete protection against cell death induced by mutant PS1,[1],10 pM
same,neuroprotective effect on cell death induced by SOD1 mutant,[2]; varying concentrations 100 aM to 100 nM,could not protect; also recorded: not observed
"SALLRSIPA [ADNF, reference compound]",mean survival days,[3]; 30 nmol ADNF icv each day,145.0 days
same,time up to which motor function was maintained (rotarod),[3]; 30 nmol ADNF icv each day,approximately 130 days
SALLRSIPAPAGASRLLLLTGEIDLP [colivelin],mean survival days,[3]; 10 pmol colivelin icv each day,159.4 days
same,prolongation of life span,"[3]; 10 pmol colivelin icv each day, versus control",11.7%
same,delay of the disease onset,[3]; 1 nmol colivelin icv each day,approximately 17 day
same,mean survival days,[3]; 1 nmol colivelin icv each day,156.7 days
same,protective action on motor function (rotarod),[3]; 1 nmol colivelin icv each day,most potent protective action
same,mean survival days,[3]; [4],153.3 days
same,time of deterioration of motor function (rotarod),[3]; [4],approximately 120 days
same,recovery of motor function,[3]; experiments using ALS model mice (summary statement),approximately 70%
same,concentration completely suppressing cell death induced by mutant PS1,[1],100 fM
same,concentration completely suppressing cell death induced by G93R-SOD1,[2]; 72 hours after transformation,1 pM
